Tested on: mice
Experiment: Screening drugs with macrophage/monocyte depletion capability for enhanced mRNA delivery (Fluc expression, MC3-LNP)
Type: in vivo
Settings: Fluc mRNA 0.2 mg/kg
Description: FIGS. 6A-6B. Luciferase expression of pretreated mice injected with MC3-LNP loaded with Fluc mRNA (0.2 mg/kg).
In this example, various small molecules or monoclonal antibodies with reported macrophage depletion capabilities were screened to evaluate the effectiveness to enhance mRNA delivery. Drugs used in this study include clodronate liposome (Lipo-Clodronate), anti-CD115, anti-CCR2, anti-Ly6C, anti-Gr-1 and zoledronate (10 μg, 50 μg and 100 μg).
FIG. 5 lists treatment methods studied in this example. […] In a different experiment, zoledronate was encapsulated in liposomes (formulated with DSPC and cholesterol) and delivered to the mouse at different dosage.

O=P(O)(O)C(O)(Cn1ccnc1)P(=O)(O)O [zoledronate]
mRNA delivery / Fluc expression of MC3-LNP in pretreated mice (10 μg of zoledronate): enhanced the mRNA delivery | Fluc expression of MC3-LNP in pretreated mice (high dose of zoledronate): decreased the Fluc expression
